ChEMBL document CHEMBL3137667, “[Drug-induced liver injury; fourteenth updated edition of the bibliographic database of liver injuries and related drugs]” (Gastroenterol Clin Biol, 2004)

Assays:
[1] = human
[2] = human; remark: listed apart in the source
[3] = human; remark: listed apart in the source
[4] = human, serum, 4383 h
[5] = Highest frequency of acute liver toxicity observed during clinical trials, expressed as a percentage. [column '% AIGUE' in source]; conditions: human
[6] = Times to onset, minimal and maximal, observed in the indexed observations. [column 'DELAI' in source]; conditions: human
[7] = human; remark: listed apart in the source
[8] = human; remark: listed apart in the source
[9] = human; remark: listed apart in the source
[10] = human; remark: listed apart in the source
[11] = human; remark: listed apart in the source
[12] = Proposed mechanism(s) of liver damage. [column 'MEC' in source]; conditions: human
[13] = human, serum
[14] = human; remark: listed apart in the source
[15] = human, serum; remark: listed apart in the source
[16] = Highest frequency of moderate liver toxicity observed during clinical trials, expressed as a percentage. [column '% BIOL' in source]; conditions: human
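Wherever Hepatotoxicity (association with vascular disease) is given: count of indexed literature references reporting vascular liver injury in humans, e.g. peliosis hepatitis, hepatic veno-occlusive disease or Budd-Chiari syndrome.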
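Wherever Hepatotoxicity (benign tumour) is given: value is a count of indexed literature references citing a benign tumour confirmed by histopathology.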
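Wherever Hepatotoxicity (choleostasis) is given: human cholestatic liver injury, shown by histopathology or by peak ALT or AST elevation over alkaline phosphatase ratio below 2, value counts indexed literature reports.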
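Wherever Hepatotoxicity (chronic liver disease) is given: chronic liver injury confirmed by histopathology or persistently raised serum aminotransferase activity beyond 6 months, value given as the count of indexed literature references.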
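Wherever Hepatotoxicity (cirrhosis) is given: value is a count of indexed literature references reporting cirrhosis confirmed by histopathology.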
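Wherever Hepatotoxicity (cytolytic) is given: human cytolytic liver injury, shown by histopathology or by a ratio above 5 of peak ALT or AST elevation to alkaline phosphatase elevation, value counts indexed references.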
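Wherever Hepatotoxicity (granulomatous hepatitis) is given: value is a count of indexed literature references reporting granulomatous liver disease confirmed by histopathology.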
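Wherever Hepatotoxicity (malignant tumour) is given: malignant tumour confirmed by histopathology, value gives the count of indexed literature references reporting it.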
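Wherever Hepatotoxicity (severe hepatitis) is given: human clinical data: severe hepatitis, meaning potentially life-threatening liver failure or clinically observed cases, the value counts how many indexed literature references report it.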
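Wherever Hepatotoxicity (steatosis) is given: steatosis confirmed by histopathology, value is the count of indexed references.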

| SMILES | Hepatotoxicity (steatosis) [1] | Hepatotoxicity (malignant tumour) [2] | Hepatotoxicity (association with vascular disease) [3] | Hepatotoxicity (chronic liver disease) [4] | Hepatotoxicity (acute) [5] [%] | Hepatotoxicity (time to onset) [6] | Hepatotoxicity (granulomatous hepatitis) [7] | Hepatotoxicity (severe hepatitis) [8] | Hepatotoxicity (cirrhosis) [9] | Hepatotoxicity (cytolytic) [10] | Hepatotoxicity (benign tumour) [11] | Hepatotoxicity (mechanism) [12] | Hepatotoxicity (acute) [13] | Hepatotoxicity (choleostasis) [14] | Hepatotoxicity (moderate) [15] | Hepatotoxicity (moderate) [16] [%] | further results |
| --- | --- | --- | --- | --- | --- | --- | --- | --- | --- | --- | --- | --- | --- | --- | --- | --- | --- |
| NC(=O)NC(=O)Cc1ccccc1 [PHENACEMIDE] | 0 | 0 | 0 | 0 | 3 | 1 month - 3 months | 0 | 8 | 0 | 8 | 0 | Allergic | 13 | 0 | 1 | 0 |  |
| c1ccc(C2(N3CCCCC3)CCCCC2)cc1 [PHENCYCLIDINE] | 0 | 0 | 0 | 0 | 0 | 6 hours - 3 days | 0 | 2 | 0 | 2 | 0 | Dose-dependant | 2 | 0 | 1 | 49.9 |  |
| CNNCc1ccc(C(=O)NC(C)C)cc1 [PROCARBAZINE] | 0 | 1 | 0 | 0 | 1 | 2 weeks - 3 weeks | 1 | 0 | 0 | 2 | 0 | Allergic | 2 | 0 | 0 | 0 |  |
| NC(=O)c1ncn([C@@H]2O[C@H](CO)[C@@H](O)[C@H]2O)n1 [RIBAVIRIN] | 1 | 0 | 0 | 0 | 0 | 11 weeks - 6 months | 0 | 1 | 0 | 1 | 0 | Mitochondrial toxicity | 2 | 1 | 3 | 33 |  |
| CO[C@H]1/C=C/O[C@@]2(C)Oc3c(C)c(O)c4c(c3C2=O)C2=NC3(CCN(CC(C)C)CC3)NC2=C(NC(=O)/C(C)=C\C=C\[C@H](C)[C@H](O)[C@@H](C)[C@@H](O)[C@@H](C)[C@H](OC(C)=O)[C@@H]1C)C4=O [RIFABUTIN] | 0 | 0 | 0 | 0 |  | 2 weeks - 11 weeks |  |  | 0 |  | 0 |  | 2 |  | 6 |  | Hepatotoxicity (acute) ([5]; Liver): 0%; Hepatotoxicity (granulomatous hepatitis) ([7]; Liver): 0; Hepatotoxicity (severe hepatitis) ([8]; Liver): 1; Hepatotoxicity (cytolytic) ([10]; Liver): 1; Hepatotoxicity (mechanism) ([12]; Liver): Dose-dependant; Hepatotoxicity (choleostasis) ([14]; Liver): 0; Hepatotoxicity (moderate) ([16]; Liver): 7.1% |
| CS(=O)(=O)c1ccc(C2=C(c3ccccc3)C(=O)OC2)cc1 [ROFECOXIB] | 0 | 0 | 0 | 0 | 0 | 9 weeks | 0 | 0 | 0 | 1 | 0 | Allergic | 2 | 1 | 1 | 3.2 |  |
| CCC(C)n1ncn(-c2ccc(N3CCN(c4ccc(OC[C@H]5CO[C@](Cn6cncn6)(c6ccc(F)cc6F)O5)cc4)CC3)cc2)c1=O (stereo partly drawn) [SAPERCONAZOLE] | 0 | 0 | 0 | 0 | 0 | 8 weeks | 0 | 0 | 0 | 0 | 0 | Dose-dependant | 0 | 0 | 1 | 0 |  |
| CC(C)[C@@H](CC[C@@H](C)[C@H]1CC[C@H]2[C@@H]3[C@H](O)C[C@H]4C[C@@H](NCCCNCCCCN)CC[C@]4(C)[C@H]3CC[C@]12C)OS(=O)(=O)O [SQUALAMINE] | 0 | 0 | 0 | 0 | 38.5 | 2 days - 5 days | 0 | 0 | 0 | 2 | 0 | Dose-dependant | 2 | 1 | 1 | 0 |  |
| Nc1ccc(S(N)(=O)=O)cc1 [SULFANILAMIDE] | 1 | 0 | 0 | 0 | 0 | 2 weeks - 3 months | 0 | 5 | 0 | 5 | 0 | Allergic | 5 | 1 | 0 | 0 |  |
| Cc1ncc(C[n+]2csc(CCO)c2C)c(N)n1 [THIAMINE ION] | 1 | 0 | 0 | 1 |  | 2 years |  |  | 0 |  | 0 |  | 0 |  | 0 |  | Hepatotoxicity (acute) ([5]; Liver): 0%; Hepatotoxicity (granulomatous hepatitis) ([7]; Liver): 0; Hepatotoxicity (severe hepatitis) ([8]; Liver): 0; Hepatotoxicity (cytolytic) ([10]; Liver): 0; Hepatotoxicity (mechanism) ([12]; Liver): Dose-dependant; Hepatotoxicity (choleostasis) ([14]; Liver): 0; Hepatotoxicity (moderate) ([16]; Liver): 0% |
| CN1CCN(CCCN2c3ccccc3Sc3ccc(S(=O)(=O)N(C)C)cc32)CC1 [THIOPROPERAZINE] | 0 | 0 | 0 | 0 | 0 | 24 days - > 1 month | 0 | 0 | 0 | 2 | 0 | Allergic | 2 | 1 | 0 | 0 |  |
| C[C@@H]1C[C@H]2[C@@H]3CCC4=CC(=O)C=C[C@]4(C)C3=CC[C@]2(C)[C@H]1C(=O)CN1CCN(c2cc(N3CCCC3)nc(N3CCCC3)n2)CC1 [TIRILAZAD] | 0 | 0 | 0 | 0 | 0 | 3 days - 10 days | 0 | 0 | 0 | 0 | 0 | Dose-dependant | 0 | 0 | 2 | 8.5 |  |
| Cc1ccc(O)c([C@H](CCN(C(C)C)C(C)C)c2ccccc2)c1 [TOLTERODINE] | 0 | 0 | 0 | 0 | 0 | 18 days | 0 | 0 | 0 | 1 | 0 | Allergic | 1 | 1 | 0 | 0 |  |
